Laboratory results reported in PubChem BioAssay (NCI).
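Protocol summary: plate cells (96-well), add compound at 5 concentrations, incubate 48 h, interpolate endpoints linearly. Here, GI50 denotes the concentration required for 50% inhibition of growth. TGI: total growth inhibition.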

How the values were obtained:
Assay in all cases: growth of human tumour cells (NCI), 48 h; in the data active means GI50 below about 0.43 µM; inactive means the rest
786-0 renal = test system: 786-0 renal
A549 NSCLC = test system: A549 NSCLC
ACHN renal = test system: ACHN renal
BT-549 breast = test system: BT-549 breast
CAKI-1 renal = test system: CAKI-1 renal
CCRF-CEM leukemia = test system: CCRF-CEM leukemia
COLO 205 colon = test system: COLO 205 colon
DU-145 prostate = test system: DU-145 prostate
EKVX NSCLC = test system: EKVX NSCLC
HCC-2998 colon = test system: HCC-2998 colon
HCT-116 colon = test system: HCT-116 colon
HCT-15 colon = test system: HCT-15 colon
HL-60(TB) leukemia = test system: HL-60(TB) leukemia
HOP-62 NSCLC = test system: HOP-62 NSCLC
HOP-92 NSCLC = test system: HOP-92 NSCLC
HS 578T breast = test system: HS 578T breast
HT29 colon = test system: HT29 colon
IGROV1 ovarian = test system: IGROV1 ovarian
K-562 leukemia = test system: K-562 leukemia
KM12 colon = test system: KM12 colon
LOX IMVI melanoma = test system: LOX IMVI melanoma
M14 melanoma = test system: M14 melanoma
MALME-3M melanoma = test system: MALME-3M melanoma
MCF7 breast = test system: MCF7 breast
MDA-MB-231 breast = test system: MDA-MB-231 breast
MDA-MB-435 = test system: MDA-MB-435
MDA-MB-468 breast = test system: MDA-MB-468 breast
MOLT-4 leukemia = test system: MOLT-4 leukemia
NCI-H226 lung = test system: NCI-H226 lung
NCI-H23 lung = test system: NCI-H23 lung
NCI-H460 lung = test system: NCI-H460 lung
NCI-H522 lung = test system: NCI-H522 lung
NCI/ADR-RES ovarian = test system: NCI/ADR-RES ovarian
OVCAR-3 ovarian = test system: OVCAR-3 ovarian
OVCAR-4 ovarian = test system: OVCAR-4 ovarian
OVCAR-5 ovarian = test system: OVCAR-5 ovarian
OVCAR-8 ovarian = test system: OVCAR-8 ovarian
PC-3 prostate = test system: PC-3 prostate
RPMI-8226 leukemia = test system: RPMI-8226 leukemia
RXF 393 renal = test system: RXF 393 renal
SF-268 CNS = test system: SF-268 CNS
SF-295 CNS = test system: SF-295 CNS
SF-539 CNS = test system: SF-539 CNS
SK-MEL-2 melanoma = test system: SK-MEL-2 melanoma
SK-MEL-28 melanoma = test system: SK-MEL-28 melanoma
SK-MEL-5 melanoma = test system: SK-MEL-5 melanoma
SK-OV-3 ovarian = test system: SK-OV-3 ovarian
SN12C renal = test system: SN12C renal
SNB-19 CNS = test system: SNB-19 CNS
SNB-75 CNS = test system: SNB-75 CNS
SR leukemia = test system: SR leukemia
SW-620 colon = test system: SW-620 colon
T-47D breast = test system: T-47D breast
TK-10 renal = test system: TK-10 renal
U251 CNS = test system: U251 CNS
UACC-257 melanoma = test system: UACC-257 melanoma
UACC-62 melanoma = test system: UACC-62 melanoma
UO-31 renal = test system: UO-31 renal

COc1cc(NC(=O)c2cccc(C3CCc4c(cc(OC)c(OC)c4OC)O3)c2)cc(OC)c1OC (stereo not given)
inactive: GI50 (786-0 renal) 4.23 µM | GI50 (A549 NSCLC) 3.91 µM | GI50 (ACHN renal) 3.77 µM | GI50 (BT-549 breast) 1990 nM | GI50 (CAKI-1 renal) 2370 nM | GI50 (CCRF-CEM leukemia) 2750 nM | GI50 (COLO 205 colon) 2000 nM | GI50 (DU-145 prostate) 3.83 µM | GI50 (EKVX NSCLC) 6.37 µM | GI50 (HCC-2998 colon) 7.64 µM | GI50 (HCT-116 colon) 3.69 µM | GI50 (HCT-15 colon) 2700 nM | GI50 (HL-60(TB) leukemia) 2040 nM | GI50 (HOP-62 NSCLC) 3.51 µM | GI50 (HOP-92 NSCLC) 3.96 µM | GI50 (HS 578T breast) 2040 nM | GI50 (HT29 colon) 2460 nM | GI50 (IGROV1 ovarian) 4.15 µM | GI50 (K-562 leukemia) 1750 nM | GI50 (KM12 colon) 3.1 µM | GI50 (LOX IMVI melanoma) 3.62 µM | GI50 (M14 melanoma) 2530 nM | GI50 (MALME-3M melanoma) 2450 nM | GI50 (MCF7 breast) 2290 nM | GI50 (MDA-MB-231 breast) 4.12 µM | GI50 (MDA-MB-435) 497 nM | GI50 (MDA-MB-468 breast) 1240 nM | GI50 (MOLT-4 leukemia) 2860 nM | GI50 (NCI-H226 lung) 2550 nM | GI50 (NCI-H23 lung) 4.37 µM | GI50 (NCI-H460 lung) 3.24 µM | GI50 (NCI-H522 lung) 1560 nM | GI50 (NCI/ADR-RES ovarian) 2100 nM | GI50 (OVCAR-3 ovarian) 3.42 µM | GI50 (OVCAR-4 ovarian) 4.49 µM | GI50 (OVCAR-5 ovarian) 5.01 µM | GI50 (OVCAR-8 ovarian) 3.2 µM | GI50 (PC-3 prostate) 2660 nM | GI50 (RPMI-8226 leukemia) 1950 nM | GI50 (RXF 393 renal) 1590 nM | GI50 (SF-268 CNS) 3.78 µM | GI50 (SF-295 CNS) 2460 nM | GI50 (SF-539 CNS) 2130 nM | GI50 (SK-MEL-2 melanoma) 2660 nM | GI50 (SK-MEL-28 melanoma) 4.64 µM | GI50 (SK-MEL-5 melanoma) 1580 nM | GI50 (SK-OV-3 ovarian) 3.65 µM | GI50 (SN12C renal) 3.47 µM | GI50 (SNB-19 CNS) 5.94 µM | GI50 (SNB-75 CNS) 2330 nM | GI50 (SR leukemia) 925 nM | GI50 (SW-620 colon) 3.52 µM | GI50 (T-47D breast) 2500 nM | GI50 (TK-10 renal) 4.32 µM | GI50 (U251 CNS) 3.6 µM | GI50 (UACC-257 melanoma) 3.89 µM | GI50 (UACC-62 melanoma) 1740 nM | GI50 (UO-31 renal) 2590 nM
5.31 µM: TGI (COLO 205 colon)
27.5 µM: TGI (MOLT-4 leukemia)
6.07 µM: TGI (HT29 colon)
5.79 µM: TGI (HL-60(TB) leukemia)
4.63 µM: TGI (NCI-H522 lung)
9.29 µM: TGI (T-47D breast)
8.46 µM: TGI (RXF 393 renal)
> 100 µM: TGI (786-0 renal) | TGI (A549 NSCLC) | TGI (ACHN renal) | TGI (CAKI-1 renal) | TGI (CCRF-CEM leukemia) | TGI (DU-145 prostate) | TGI (EKVX NSCLC) | TGI (HCC-2998 colon) | TGI (HCT-116 colon) | TGI (HCT-15 colon) | TGI (HOP-62 NSCLC) | TGI (HOP-92 NSCLC) | TGI (IGROV1 ovarian) | TGI (K-562 leukemia) | TGI (KM12 colon) | TGI (LOX IMVI melanoma) | TGI (MALME-3M melanoma) | TGI (MCF7 breast) | TGI (MDA-MB-231 breast) | TGI (NCI-H23 lung) | TGI (NCI-H460 lung) | TGI (OVCAR-3 ovarian) | TGI (OVCAR-4 ovarian) | TGI (OVCAR-5 ovarian) | TGI (OVCAR-8 ovarian) | TGI (PC-3 prostate) | TGI (SF-268 CNS) | TGI (SF-295 CNS) | TGI (SK-MEL-2 melanoma) | TGI (SK-MEL-28 melanoma) | TGI (SK-OV-3 ovarian) | TGI (SN12C renal) | TGI (SNB-19 CNS) | TGI (SW-620 colon) | TGI (TK-10 renal) | TGI (U251 CNS) | TGI (UACC-257 melanoma)
12.7 µM: TGI (RPMI-8226 leukemia)
19.2 µM: TGI (UO-31 renal)
5.81 µM: TGI (SF-539 CNS)
8.33 µM: TGI (UACC-62 melanoma)
7.99 µM: TGI (SNB-75 CNS)
6.74 µM: TGI (HS 578T breast)
84.9 µM: TGI (SR leukemia)
4.41 µM: TGI (MDA-MB-468 breast)
4.52 µM: TGI (SK-MEL-5 melanoma)
8.22 µM: TGI (BT-549 breast)
3.33 µM: TGI (MDA-MB-435)
6.91 µM: TGI (NCI/ADR-RES ovarian)
71 µM: TGI (M14 melanoma)
